Results as given in patent publication US12508251B2, “CD4 mimic compound with anti-HIV activity” (NATIONAL UNIVERSITY CORPORATION KUMAMOTO UNIVERSITY, priority 2019, dated 2025).
Entries after “also recorded” stand apart in the source; their conditions may differ. Read-outs that look alike come from different tables or passages of the source.

Experiments:
HIV isolate (KP5mvcR) = assay: microbe, parasite or virus in culture; format: cell-based, HIV-1; details: for SI (selectivity index): CC50/IC50, TZM-bl cells, KP-5mvcR; for IC50: read-out: IC50 KP-5mvcR
Description: (§1) In this Example, TZM-bl cells (available from NIH AIDS Reagent Program (https://www.aidsreagent.org/Index.cfm)) were used for individual evaluations. TZM-bl cells have CD4/CCR5/CXCR4 on the surface and express luciferase when infected with HIV. In this manner, TZM-bl cells serve as indicator cells. In the cells, β-galactosidase gene linked to HIV-1 LTR sequence is integrated. When the cells are infected with HIV-1, the tat gene of HIV-1 expresses a transcriptional activator Tat, which acts on the promoter region of LTR to express β-galactosidase. When a substrate is added, enzymatic cleavage occurs to produce galactose and luciferin. Luciferin is oxidized by luciferase to generate chemiluminescence, which can be detected by a luminometer to determine the number of cells infected with HIV-1.
2) IC50 (Calculation of Anti-HIV Activity)
After each compound was serially diluted, TZM-bl cells (1×10^4) and 100TCID50 of HIV isolate (KP5mvcR) were added, and then, cultured for 48 hours. Thereafter, the cells were collected and a Luc reporter reagent was added. The amount of luminescence was measured to calculate the inhibition rate of infection (IC50). The HIV isolate (KP5mvcR) is an MVC resistant HIV clone, which was obtained by subjecting a clinical isolate KP-5 (YTA) to passage culture with PM1 CCR5 cells in the presence of MVC over 48 passages to obtain MVC resistant KP-5Env, which was inserted into NL43 vector (Yoshimura K, et al., J. Gen. Virol., 95, 1816-1826, 2014).

[1] = Cytotoxicity (CC50) in TZM-bl cells, luminescence (CTG); format: cell-based; details: human
Description: as §1, with “([…].org/Index.cfm))” for “(https://www.aidsreagent.org/Index.cfm))”, “HIV-1. […] After each compound was serially diluted, TZM-bl cells (1×10^4) were added, cultured for 48 hours and collected. A Luc reporter reagent was added and the amount of luminescence (reagent: CTG) was measured […].” for “HIV-1.”

TZM-bl cells = assay: as above; format: cell-based; details: TZM-bl cells, cultured for 48 hours
Description: as §1, with “([…].org/Index.cfm))” for “(https://www.aidsreagent.org/Index.cfm))”, “HIV-1. […] After each compound was serially diluted, TZM-bl cells (1×10^4) were added, cultured for 48 hours and collected. A Luc reporter reagent was added and the amount of luminescence (reagent: CTG) was measured […].” for “HIV-1.”

[2] = Blood half-life after intravenous injection, blood concentration by HPLC; format: in vivo, Macaque monkey
Description: A Macaque monkey (MM616, body weight 8.00 kg) was intravenously injected with YIR-821 at a dose of 192 mg (10.1 mg/mL). A blood sample was taken from the monkey, 21, 39, 63, 91, 98, 113, 143, 201, 328 and 453 minutes later, and the concentration of YIR-821 in the blood was measured by HPLC.
HPLC conditions are as follows. • Measuring device: JASCO PU-2089 plus (JASCO Corporation, Ltd.) • Column: Cosmosil 5C18-ARII column (4.6×250 mm, Nacalai Tesque, Inc.) • Solvent A: H2O containing 0.1% (v/v) TFA • Solvent B: CH3CN containing 0.1% (v/v) TFA • Gradient: 20-50% solvent B in solvent A, 30 minutes • Flow rate: 1 cm^3/min • Detection: Detection at 260 nm-UV
In the same manner as in Reference Example 1, Macaque monkey (MM616, body weight 8.78 kg) was intravenously injected with TKB-002 trifluoroacetate obtained in Example 2 at a dose of 23.4 μmol (33.2 mg/20 mL). A blood sample was taken before, during and after administration (at a time point of 10 minutes, 37 minutes, 1 hour, 2.5 hours, 4.5 hours, 6.5 hours and 24 hours after administration). Blood concentration was measured by HPLC in the same conditions as in Reference Example 1.

[3] = Stability on incubation with human liver microsomes, HPLC; format: in vitro ADME; details: 60 minutes at 37° C., NADPH, NaPB pH 7.4
Description: More specifically, TKB-002 trifluoroacetate was dissolved in a 100 mM sodium phosphate buffer (NaPB, pH 7.4) to obtain a 0.3 mM solution. This solution (183 μL) was mixed with 20 mM NADPH (2 μL) in 100 mM NaPB (pH 7.4), and 5 μL of 20 mg/mL human liver microsome (Human Microsomes, 50 Donors (ThermoFisher Scientific, cat #: HMMCPL, Lot #: PL050E-A)) solution. After the mixture was pre-incubated at 37° C. for 5 minutes, 20 mM NADPH solution (10 μL) was added to the mixture, which was incubated while gently stirring for 60 minutes at 37° C.
Subsequently, 200 μL of ethyl acetate was added to the mixture to terminate the reaction. The mixture was stirred by a vortex mixer and centrifuged at 3,000 rpm for 5 minutes. The supernatant was filtered and ethyl acetate was removed with nitrogen gas.
To the mixture, 50 μL of MeCN containing 0.1% TFA was added and analysis was carried out by HPLC in the same conditions as in Reference Example 1 and Example 4.

[4] = In vitro decomposition releasing the alkyl or PEG chain in PBS; format: physicochemical; details: PBS of pH7.4 at 37° C.
Description: The compound obtained in Example 5 (YIS-527) has an alkyl chain bound to a side chain of YIR-821 via a —C(═O)O— group, and it is assumed that the compound is hydrolyzed in vitro and in vivo. Accordingly, in this Example, an alkyl chain released in vitro was measured.
With respect to compound (YIS-540) having a PEG chain bound to a side chain of YIR-821 via a —C(═O)O— group obtained in Example 6, the PEG chain released in vitro was measured in the same manner as in Example 7.

[5] = Human immunodeficiency virus 1, TZM-bl, 48 h
[6] = TZM-bl cells, 100TCID50 of KP5mvcR, 48 hours

## O=C1Nc2ccc(Cl)cc2[C@@](C#CC2CC2)(C(F)(F)F)O1 [EFV, efavirenz, reference compound]
HIV isolate (KP5mvcR)
  SI (selectivity index): 6,829
HIV isolate (KP5mvcR); [5]
  IC50: 0.0041 ± 0.00099 µM
[1]; TZM-bl cells, cultured for 48 hours, read-out: CC50
  CC50 at 48 h: 28 ± 3.4 µM

## CC1(C)CC(NC(=O)C(=O)Nc2ccc(Cl)cc2)CC(C)(C)N1 [NBD-556, reference compound]
HIV isolate (KP5mvcR); [6]
  IC50: 0.27 ± 0.052 µM
TZM-bl cells
  CC50: 177 ± 9.5 µM

## COCCOCCOCCOCCOCCNC(=O)CCC(=O)N[C@@H](CCCNC(=N)N)C(=O)NCCN1CCC(NC(=O)C(=O)Nc2ccc(Cl)cc2)CC12CCCCC2 (stereo partly drawn) [TKB-001, N^1-((2S)-1-((2-(4-(2-((4-chlorophenyl)amino)-2-oxoacetamido)-1-azaspiro[5.5]undecan-1-yl)ethyl)amino)-5-guanidino-1-oxopentan-2-yl)-N4-(2,5,8,11,14-pentaoxahexadecan-16-yl)succinamide]
HIV isolate (KP5mvcR)
  SI (selectivity index): >769
HIV isolate (KP5mvcR); [5]
  IC50: 0.13 ± 0.026 µM
[1]
  CC50 at 48 h: > 100 µM

## COCCOCCOCCOCCOCCOCCOCCOCCOCCOCCOCCOCCNC(=O)CCC(=O)N[C@@H](CCCNC(=N)N)C(=O)NCCN1CCC(NC(=O)C(=O)Nc2ccc(Cl)cc2)CC12CCCCC2 (stereo partly drawn) [TKB-002, N^1-((2S)-1-((2-(4-(2-((4-chlorophenyl)amino)-2-oxoacetamido)-1-azaspiro[5.5]undecan-1-yl)ethyl)amino)-5-guanidino-1-oxopentane-2-yl)-N^4-(2,5,8,11,14,17,20,23,26,29,32,35-dodecaoxaheptatriacontan-37-yl)succinamide]
[2]; Macaque monkey, intravenous injection
  blood half-life relative to YIR-821: 3.48 times
[2]; blood, 23.4 μmol, Macaque monkey MM616, intravenous injection
  half-life: 1.8 h
HIV isolate (KP5mvcR)
  SI (selectivity index): >1,000
HIV isolate (KP5mvcR); [5]
  IC50: < 0.1 µM
[1]
  CC50 at 48 h: > 100 µM
[3]
  stability in the presence of human liver microsomes (HPLC peak intensity): the intensity of the peak was the same as before incubation; also recorded: stable even in the presence of human liver microsomes

## COCCOCCOCCOCCOCCOCCOCCOCCOCCOCCOCCOCCOCCOCCOCCOCCOCCOCCOCCOCCOCCOCCOCCOCCNC(=O)CCC(=O)N[C@@H](CCCNC(=N)N)C(=O)NCCN1CCC(NC(=O)C(=O)Nc2ccc(Cl)cc2)CC12CCCCC2 (stereo partly drawn) [TKB-003]
HIV isolate (KP5mvcR); [6]
  IC50: < 0.1 µM
TZM-bl cells
  CC50: 40 ± 14 µM

## CCCCCCCCCCCCCCCCNC(=O)CCC(=O)OC(CCCNC(=N)N)C(=O)NCCN1CCC(NC(=O)C(=O)Nc2ccc(Cl)cc2)CC12CCCCC2 (stereo not drawn) [YIS-527, 1-((2-(4-(2-((4-chlorophenyl)amino)-2-oxoacetamido)-1-azaspiro[5.5]undecan-1-yl)ethyl)amino)-5-guanidino-1-oxopentan-2-yl 4-(hexadecylamino)-4-oxobutanoate]
[4]
  decomposition releasing the alkyl or PEG chain: decomposition reaction was observed
HIV isolate (KP5mvcR)
  SI (selectivity index): 14
HIV isolate (KP5mvcR); [5]
  IC50: 1.2 ± 0.11 µM
[1]
  CC50 at 48 h: 17 ± 0.22 µM

## COCCOCCOCCOCCOCCNC(=O)CCC(=O)OC(CCCNC(=N)N)C(=O)NCCN1CCC(NC(=O)C(=O)Nc2ccc(Cl)cc2)CC12CCCCC2 (stereo not drawn) [YIS-540, 1-((2-(4-(2-((4-chlorophenyl)amino)-2-oxoacetamido)-1-azaspiro[5.5]undecan-1-yl)ethyl)amino)-5-guanidino-1-oxopentan-2-yl 18-oxo-2,5,8,11,14-pentaoxa-17-azahenicosan-21-oate]
[4]
  decomposition releasing the alkyl or PEG chain: decomposition reaction was observed
HIV isolate (KP5mvcR)
  SI (selectivity index): 6412
HIV isolate (KP5mvcR); [5]
  IC50: 0.017 ± 0.011 µM
[1]
  CC50 at 48 h: 109 ± 8.2 µM
